Experimental data from patent publication US20040229954A1, “Selective manipulation of triglyceride, HDL and LDL parameters with 6-(5-carboxy-5-methyl-hexyloxy)-2,2-dimethylhexanoic acid monocalcium salt” (priority 2003, published 2004).
Marks after values point to notes of the source that are not given here.

Experiment: Randomized, double-blind, placebo-controlled dose-response study of gemcabene in patients with HDL-C <35 mg/dL; percent change from baseline in serum lipids and apolipoproteins
Assay type: in vivo, human
Description: A randomized, double-blind, placebo-controlled, parallel group, dose-response, multicenter study was conducted. The study was conducted at 11 centers in the United States and one center in Canada. Institutional Review Board approval was obtained at each center and every patient was informed of the study, freely consented to participate and signed an informed consent document. Following a 6-week, single-blind placebo, dietary lead in period conducted according to National Cholesterol Education Program Step 1 Diet, eligible patients with HDL-C level <35 mg/dL (0.9 mmol/L) were stratified according to whether mean serum TG levels, calculated from measures at 2 and 4 weeks prior to randomization, were <200 mg/dL (2.3 mmol/L) or >200 mg/dL (2.3 mmol/L). Within each TG stratum, patients were randomized to receive either 150, 300, 600, or 900 mg of gemcabene or placebo daily once daily for 12 weeks.
Eligible patients were women of non-childbearing potential (naturally postmenopausal or surgically sterilized) or men 18 to 80 years of age with a baseline serum HDL-C levels <35 mg/dL. Patients were excluded if they had creatine kinase serum levels >3 times the upper limit of normal, a body mass index >35 kilogram/meter^2, uncontrolled hypertension defined as sitting diastolic blood pressure >95 mm Hg whether taking or not taking an acceptable antihypertensive medication, uncontrolled diabetes mellitus (Hemoglobin A1C>10%), hepatic dysfunction including asparate aminotransferase or alanine aminotransferase levels >2 times the upper limits of normal, renal dysfunction as defined by blood urea nitrogen or creatinine levels >2 times upper limits of normal or uncontrolled hypothyroidism (thyroid stimulating hormone >1.5 times the upper limits of normal). Also excluded were those with a prior history of known gall bladder disease or pancreatitis, a history of consuming >14 alcoholic drinks per week, or those with a known hypersensitivity to lipid-altering drugs. Patients who had myocardial infarction, severe or unstable angina pectoris, coronary artery bypass graft or any other cardiovascular event requiring hospitalization within the last 3 months were also excluded from the study. Patients were not permitted any other lipid-altering drugs during the course of the study and if on prestudy lipid-altering drug therapy, were required to undergo an additional 4-week washout period. Use of isotretinoin, insulin, warfarin, immunosuppressive agents and intermittent systemic steroids were also prohibited. Alpha-blockers, β-blockers, hormone replacement therapy and oral hypoglycemic agents were permitted provided that their use was stable for at least 3 months.
The primary efficacy parameter was percent change from baseline in serum HDL-C levels at the study subject's last visit. Other efficacy parameters included percent change from baseline in serum LDL-C, TG, apolipoproteins A-I, A-II, B, C-III, E, and non-HDL-C levels. Additionally, nuclear magnetic resonance (NMR) spectroscopy was used to assess VLDL, HDL and LDL particle sizes as well as the total concentration of LDL particles. For HDL-C, non-HDL-C, LDL-C, and TG levels, the baseline value was the mean plasma value of two measurements, one obtained 2 weeks prior to randomization and one obtained at randomization. For all other parameters, the baseline value was defined as the single measurement obtained at randomization.
All blood samples were collected following a 12-hour fast and analyzed by Medical Research Laboratories in Highland Heights, Ky. Blood samples for routine chemistry and hematology profiles were measured at screening, randomization and 4, 8, and 12 weeks following the start of study medication. Basic lipid profiles (HDL-C, LDL-C, and TG) were measured at screening, 2 and 4 weeks prior to starting study medication (during the baseline phase), at randomization, and at weeks 2, 4, 8 and 12 of the treatment phase. […]

[1] = patients with TG <200 mg/dL, 150 mg once daily for 12 weeks, mean ± SE
[2] = patients with TG <200 mg/dL, 150 mg once daily for 12 weeks, median (min, max)
[3] = patients with TG <200 mg/dL, 300 mg once daily for 12 weeks, mean ± SE
[4] = patients with TG <200 mg/dL, 300 mg once daily for 12 weeks, median (min, max)
[5] = patients with TG <200 mg/dL, 600 mg once daily for 12 weeks, mean ± SE
[6] = patients with TG <200 mg/dL, 600 mg once daily for 12 weeks, median (min, max)
[7] = patients with TG <200 mg/dL, 900 mg once daily for 12 weeks, mean ± SE
[8] = patients with TG <200 mg/dL, 900 mg once daily for 12 weeks, median (min, max)
[9] = patients with TG ≧200 mg/dL, 150 mg once daily for 12 weeks, mean ± SE
[10] = patients with TG ≧200 mg/dL, 150 mg once daily for 12 weeks, median (min, max)
[11] = patients with TG ≧200 mg/dL, 300 mg once daily for 12 weeks, mean ± SE
[12] = patients with TG ≧200 mg/dL, 300 mg once daily for 12 weeks, median (min, max)
[13] = patients with TG ≧200 mg/dL, 600 mg once daily for 12 weeks, mean ± SE
[14] = patients with TG ≧200 mg/dL, 600 mg once daily for 12 weeks, median (min, max)
[15] = patients with TG ≧200 mg/dL, 900 mg once daily for 12 weeks, mean ± SE
[16] = patients with TG ≧200 mg/dL, 900 mg once daily for 12 weeks, median (min, max)
[17] = patients with mean baseline TG≧2200 mg/dL (so in the source), 150 mg dose

Structure (SMILES): CC(C)(CCCCOCCCCC(C)(C)C(=O)[O-])C(=O)[O-].[Ca+2] [gemcabene, 6-(5-carboxy-5-methyl-hexyloxy)-2,2-dimethylhexanoic acid monocalcium salt]
- levels of apolipoprotein B (both TG strata, 600 and 900 mg doses): corresponding decreases
- reduction of non-HDL-C levels (both TG strata, higher doses): up to 18%
- Percent Change from Baseline at Last Visit, Apolipoprotein A-II [1]: 5.5 ± 2.6 %
- Percent Change from Baseline at Last Visit, Apolipoprotein CIII [1]: −7.0 ± 9.2%
- Percent Change from Baseline at Last Visit, HDL-C [1]: 6.2 ± 3.1%
- Percent Change from Baseline at Last Visit, LDL-C [1]: −2.6 ± 4.4%
- Percent Change from Baseline at Last Visit, NonHDL-C [1]: −2.5 ± 4.0%
- Percent Change from Baseline at Last Visit, Apolipoprotein A-I [2]: 7.3 (−7, 40) %
- Percent Change from Baseline at Last Visit, Apolipoprotein B [2]: −0.7 (−17, 13) %
- Percent Change from Baseline at Last Visit, Apolipoprotein E [2]: −7.7 (−42, 15) %
- Percent Change from Baseline at Last Visit, TG [2]: −0.4 (−33, 32) %
- Percent Change from Baseline at Last Visit, Apolipoprotein A-II [3]: 3.3 ± 2.8%
- Percent Change from Baseline at Last Visit, Apolipoprotein CIII [3]: −14.3 ± 10.5%
- Percent Change from Baseline at Last Visit, HDL-C [3]: 5.3 ± 3.5%
- Percent Change from Baseline at Last Visit, LDL-C [3]: −5.6 ± 5.2%
- Percent Change from Baseline at Last Visit, NonHDL-C [3]: −11.6 ± 4.2 %
- Percent Change from Baseline at Last Visit, Apolipoprotein A-I [4]: 1.3 (−11, 31) %
- Percent Change from Baseline at Last Visit, Apolipoprotein B [4]: −11.7 (−33, 2) %
- Percent Change from Baseline at Last Visit, TG [4]: −14.6 (−55, 18) %
- Percent Change from Baseline at Last Visit, Apolipoprotein A-II [5]: 7.2 ± 2.6 %
- Percent Change from Baseline at Last Visit, Apolipoprotein CIII [5]: 5.4 ± 9.0%
- Percent Change from Baseline at Last Visit, HDL-C [5]: 0.5 ± 3.2%
- Percent Change from Baseline at Last Visit, LDL-C [5]: −24.9 ± 4.6 %
- Percent Change from Baseline at Last Visit, NonHDL-C [5]: −17.6 ± 3.8 %
- Percent Change from Baseline at Last Visit, Apolipoprotein A-I [6]: 7.1 (−7, 89) %
- Percent Change from Baseline at Last Visit, TG [6]: 6.4 (−45, 97) %
- Percent Change from Baseline at Last Visit, Apolipoprotein A-II [7]: 6.5 ± 2.5 %
- Percent Change from Baseline at Last Visit, Apolipoprotein CIII [7]: −9.5 ± 8.6%
- Percent Change from Baseline at Last Visit, HDL-C [7]: 5.0 ± 3.2%
- Percent Change from Baseline at Last Visit, LDL-C [7]: −15.2 ± 4.4 %
- Percent Change from Baseline at Last Visit, NonHDL-C [7]: −17.9 ± 3.6 %
- Percent Change from Baseline at Last Visit, Apolipoprotein A-I [8]: 5.5 (−11, 34) %
- Percent Change from Baseline at Last Visit, Apolipoprotein B [8]: −15.7 (−38, 21) %
- Percent Change from Baseline at Last Visit, TG [8]: −8.1 (−35, 29) %
- Percent Change from Baseline at Last Visit, Apolipoprotein A-II [9]: 5.9 ± 2.7 %
- Percent Change from Baseline at Last Visit, Apolipoprotein CIII [9]: −23.6 ± 5.7 %
- Percent Change from Baseline at Last Visit, HDL-C [9]: 17.6 ± 3.8 %
- Percent Change from Baseline at Last Visit, NonHDL-C [9]: −1.6 ± 3.6%
- Percent Change from Baseline at Last Visit, Apolipoprotein B [10]: 0.0 (−29, 33) %
- Percent Change from Baseline at Last Visit, Apolipoprotein E [10]: −20.0 (−52, 19) %
- Percent Change from Baseline at Last Visit, LDL-C [10]: 16.4 (−26,255) %
- Percent Change from Baseline at Last Visit, Apolipoprotein A-II [11]: 0.5 ± 2.6%
- Percent Change from Baseline at Last Visit, Apolipoprotein CIII [11]: −30.9 ± 5.6 %
- Percent Change from Baseline at Last Visit, HDL-C [11]: 12.3 ± 3.8%
- Percent Change from Baseline at Last Visit, NonHDL-C [11]: −9.4 ± 3.5%
- Percent Change from Baseline at Last Visit, Apolipoprotein B [12]: −6.5 (−30, 31) %
- Percent Change from Baseline at Last Visit, Apolipoprotein E [12]: −37.4** %
- Percent Change from Baseline at Last Visit, LDL-C [12]: 8.3 (−31, 252) %
- Percent Change from Baseline at Last Visit, Apolipoprotein A-II [13]: −0.8 ± 3.0%
- Percent Change from Baseline at Last Visit, Apolipoprotein CIII [13]: −6.4 ± 6.5%
- Percent Change from Baseline at Last Visit, HDL-C [13]: −0.9 ± 4.1%
- Percent Change from Baseline at Last Visit, NonHDL-C [13]: −10.9 ± 4.2%
- Percent Change from Baseline at Last Visit, Apolipoprotein B [14]: −5.7 (−34, 54) %
- Percent Change from Baseline at Last Visit, Apolipoprotein E [14]: −25.4 (−49, 18) %
- Percent Change from Baseline at Last Visit, TG [14]: −12.7 (−59, 38) %
- Percent Change from Baseline at Last Visit, Apolipoprotein A-II [15]: −4.8 ± 2.6%
- Percent Change from Baseline at Last Visit, Apolipoprotein CIII [15]: −10.8 ± 5.6%
- Percent Change from Baseline at Last Visit, HDL-C [15]: −0.9 ± 3.8%
- Percent Change from Baseline at Last Visit, NonHDL-C [15]: −16.3 ± 4.3 %
- Percent Change from Baseline at Last Visit, Apolipoprotein E [16]: −11.7 (−59, 65) %
- Percent Change from Baseline at Last Visit, TG [16]: −9.0 %
- serum HDL-C or TG levels versus placebo (patients with mean baseline TG <200 mg/dL, any dose): no significant differences
- decrease in apolipoprotein C-III [17]: 23%
- increase in level of apolipoprotein A-I [17]: 6%
- increase in level of apolipoprotein A-II [17]: 6%
- increase in serum HDL-C levels [17]: 18%
- reduction of TG serum levels [17]: 27%
- reduction of TG serum levels (patients with mean baseline TG≧2200 mg/dL (so in the source), 300 mg dose): 39%
- serum HDL-C or TG levels versus placebo (patients with mean baseline TG≧2200 mg/dL (so in the source), doses of 600 or 900 mg): No significant differences
